Patent publication US6107549A, “Genetically engineered plant resistance to thiazopyr and other pyridine herbicides” (Monsanto Company, priority 1999, dated 2000)
Substitutions are numbered along the chain they refer to.

Legend:
porcine liver esterase = assay: Pyridine-esterase activity assay with porcine liver esterase; assay type: biochemical; conditions: for esterase activity against substrate: commercially available preparations of porcine liver esterase
Experimental: (§1) Esterase activity assays. Esterase activity was measured in vitro by conversion of either [^14 C]thiazopyr or [^14 C]MON 14300 to their corresponding monoacid. Pyridine-esterase activity was assayed during protein purification and from tissue extracts of transgenic plants. The homogenizing buffer for plant tissues consisted of 100 mM Tris pH 8.0, 1 mM EDTA, 1 mM DTT, and 10% glycerol in water. Plant tissues (1 g/ml buffer) including leaves, seeds, flowers, seedlings, etc. were homogenized in conical centrifuge tubes using a spinning pestle at 4° C. Following centrifugation (12,000× g), the supernatant (250 μl) was assayed immediately for esterase activity by incubation with [^14 C]thiazopyr or [^14 C]MON 14300 (4 μg) in 0.1 M Tris pH 8.0 buffer (50 μl) at 37° C. The reaction was sampled (100 μL) at various times (0.5 to 100 hr) to generate a kinetic profile of monoacid formation. The reaction was stopped by addition of 1% trifluoroacetic acid in acetonitrile (v/v, 150 μl). Following centrifugation (12,000× g for 3 min), the supernatant was analyzed by HPLC/RAD (radioactivity detection) to resolve the monoacid from the parent herbicide and other metabolites. Control reactions in the absence of the esterase recovered un-reacted thiazopyr or MON 14300 for the duration of experiments. Esterase activity was also assayed during protein purification following a similar procedure except a single time-point (1-2 hrs) of incubation was selected within the linear range of reaction. In vitro assays also employed three commonly used calorimetric (p-nitrophenyl butyrate) or fluorescent (4-methyl umbelliferyl butyrate and 5-bromo-4-chloro-3-indolylacetate) substrates. These substrates are useful in rapidly and qualitatively detecting general esterase activity.
Purification of pyridine-esterases from porcine and rabbit liver. Porcine and rabbit liver esterases, obtained commercially as (NH4)2 SO4 suspensions, were desalted using a disposable SEPHADEX™ G25 size exclusion column (Pharmacia Biotech). Proteins (1 to 10 mg) were initially separated on a strong anion exchange column (MONO Q™, Pharmacia Biotech) at 4° C. The column was linearly programmed in 30 minutes from 0 to 0.4 M KCl in 10 mM Tris buffer, pH 7.4 at a flow rate of 1 m/min. Subsequently, the column was programmed from 0.4 to 1.0 M KCl in 10 min. Effluent was monitored by UV (280 nm) and fractions were collected at 1 ml intervals. Effluent fractions were assayed for protein by Coomassie dye (Bio Rad Laboratory) and for pyridine-esterase activity. Protein purity was determined by SDS-PAGE on 10 to 15% gradient gels (Pharmacia Biotech) with visualization of proteins by silver staining.
Following anion exchange chromatography, fractions with the highest purity and activity were pooled. After desalting, the pooled fractions were further separated by isoelectric focusing (IEF) chromatography on a MONO P™ column (Pharmacia Biotech) at 4° C. IEF chromotography was conducted at different pH ranges (3-9, 4-7, 5.5-6.5 or 4.5-5.5) using appropriate combinations of POLYBUFFERS™ (Pharmacia Biotech) and a flow rate of […]. Effluent fractions from IEF chromatography were analyzed for protein and pyridine-esterase activity. The protein purity of the fractions was determined by SDS-PAGE and IEF-PAGE.

rabbit liver esterase = assay: Pyridine-esterase activity assay with rabbit liver esterase; assay type: biochemical; conditions: commercially available rabbit liver esterase
Experimental: Esterase activity assays. Esterase activity was measured in vitro by conversion of either [^14 C]thiazopyr or [^14 C]MON 14300 to their corresponding monoacid. Pyridine-esterase activity was assayed during protein purification and from tissue extracts of transgenic plants. The homogenizing buffer for plant tissues consisted of 100 mM Tris pH 8.0, 1 mM EDTA, 1 mM DTT, and 10% glycerol in water. Plant tissues (1 g/ml buffer) including leaves, seeds, flowers, seedlings, etc. were homogenized in conical centrifuge tubes using a spinning pestle at 4° C. […] Following centrifugation (12,000× g for 3 min), the supernatant was analyzed by HPLC/RAD (radioactivity detection) to resolve the monoacid from the parent herbicide and other metabolites. […]
Purification of pyridine-esterases from porcine and rabbit liver. […] Effluent was monitored by UV (280 nm) and fractions were collected at 1 ml intervals. […] Protein purity was determined by SDS-PAGE on 10 to 15% gradient gels (Pharmacia Biotech) with visualization of proteins by silver staining.
Following anion exchange chromatography, fractions with the highest purity and activity were pooled. […] Effluent fractions from IEF chromatography were analyzed for protein and pyridine-esterase activity. The protein purity of the fractions was determined by SDS-PAGE and IEF-PAGE.

pyridine-esterase = biological target: T1, pyridine-esterase (Oryctolagus cuniculus, UniProt P12337, A196R/H30K); assay type: biochemical, rabbit; conditions: for hydrolysis by pyridine-esterase (substrate specificity): tobacco line #37437 extract, FIG. 4
T1 construct: made in house; host or cells: transgenic tobacco (Samson) and tomato (UC82B) plants, tissue extracts
T1 sequence (P12337 19-565 H30K/A196R): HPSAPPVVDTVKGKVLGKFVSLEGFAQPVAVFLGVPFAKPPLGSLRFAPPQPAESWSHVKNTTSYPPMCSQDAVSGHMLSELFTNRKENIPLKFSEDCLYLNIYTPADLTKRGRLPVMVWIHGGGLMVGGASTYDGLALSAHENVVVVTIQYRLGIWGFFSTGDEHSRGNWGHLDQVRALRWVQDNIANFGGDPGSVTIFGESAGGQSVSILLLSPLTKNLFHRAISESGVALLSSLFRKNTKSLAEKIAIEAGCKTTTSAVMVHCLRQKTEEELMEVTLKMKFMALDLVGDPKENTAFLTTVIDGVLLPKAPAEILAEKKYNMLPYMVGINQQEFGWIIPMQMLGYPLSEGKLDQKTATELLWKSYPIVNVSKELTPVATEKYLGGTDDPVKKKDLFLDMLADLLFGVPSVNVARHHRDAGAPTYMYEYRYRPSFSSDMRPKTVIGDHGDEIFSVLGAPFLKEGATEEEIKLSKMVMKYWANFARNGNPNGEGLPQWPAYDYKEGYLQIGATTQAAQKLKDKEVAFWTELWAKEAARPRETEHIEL
Experimental: as §1
Tissue extracts from 3 tobacco R1 seedlings were employed for further studies. Two of the lines (#37437 and #37432) expressed high levels of esterase (~0.5%) and one line (#37436) which expressed no pyridine-esterase was used as negative control. Tissue extracts were incubated with [^14 C]MON 14300 and formation of the monoacid monitored with time. […] In comparison, less that 2% monoacid was detected in line (#37436). […] First, pyridine-esterase was capable of driving the hydrolysis reaction to completion with no apparent product inhibition, and second, there was no endogenous esterase activity in tobacco which catalyzed MON 14300 hydrolysis.

RLE1 = biological target: T2, RLE1 (Oryctolagus cuniculus, UniProt P12337); assay: Thiazopyr hydrolysis by RLE1 preparation from Prof. Ozols; assay type: biochemical, rabbit; conditions: purified RLE1 preparation from Prof. Ozols
T2 construct: tissue Professor J. Ozols; host or cells: rabbit liver
T2 sequence (P12337 19-565): T1 sequence (P12337 19-565 H30K/A196R) with K12H, R178A
Experimental: as §1, with “Esterase activity was also assayed during protein purification following a similar procedure except a single time-point (1-2 hrs) of incubation was selected within the linear range of reaction. In vitro assays also employed three commonly used calorimetric (p-nitrophenyl butyrate) or fluorescent (4-methyl umbelliferyl butyrate and 5-bromo-4-chloro-3-indolylacetate) substrates. These substrates are useful in rapidly and qualitatively detecting general esterase activity.” left out

[1] = purified porcine esterase against thiazopyr, double reciprocal plot

| Structure (SMILES) | rate of hydrolysis compared with thiazopyr (porcine liver esterase; commercial porcine liver esterase) | esterase activity against substrate (porcine liver esterase) | esterase activity against substrate (rabbit liver esterase) | hydrolysis to monoacid metabolite (pyridine-esterase; expressing lines #37432 and #37437, FIG. 3) | hydrolysis by pyridine-esterase (substrate specificity) (pyridine-esterase) | monoacid formed (pyridine-esterase; tobacco, seedling tissue extract, 100 h) [%] | Km (porcine liver esterase; [1]) [µM] | Vmax (porcine liver esterase; [1]) [nmol/min/mg] | thiazopyr hydrolytic activity (RLE1) | thiazopyr hydrolytic activity (RLE1; listed as Thiazopyr) |
| --- | --- | --- | --- | --- | --- | --- | --- | --- | --- | --- |
| COC(=O)c1c(C(F)F)nc(C(F)(F)F)c(C(=O)n2cccn2)c1CC(C)C [MON 14300] | hydrolyzed faster than thiazopyr | demonstrated activity | active | efficient hydrolysis | clearly hydrolyzed | 90 |  |  |  |  |
| COC(=O)c1c(C(F)F)nc(C(F)(F)F)c(C2=NCCS2)c1CC(C)C [thiazopyr] |  | demonstrated activity | active |  | clearly hydrolyzed |  | 320 | 10.8 | demonstrated thiazopyr hydrolysis | could be demonstrated with RLE1 |
